# Assays:
# [1] = system: sleep after injection of Nembutal; assay: Time of inducing the sleep after injection of Nembutal; assay type: in vivo; settings: even at low dosages
# brain blood circulation = assay: Effect on the brain blood circulation and on the consumption of oxygen and glucose by the brain, anaesthetized dogs; assay type: in vivo, dog; parameters: O2 cap. = amount of oxygen supplied to the brain tissues / art. QO2 / QO2: unit not given here; settings: 100 mg/kg perorally
# Excerpt: Effect of tetrahydroalstonine on the brain blood circulation and on the consumption of oxygen and of glucose by the brain.
# On arterial and venous blood sample the concentration of glucose has been determined enzymatically according to the method of hexokinase (C. Hennon and co-workers).
# The determination of the pressure of oxygene (PO2) has been carried out with a polarographic analyser and that of carbonic anhydride (PCO2) in the arterial or venous brain blood, using a Duo-Matic electrometer IL 123.
# femoral blood flow = assay: Femoral blood flow, anaesthetized dogs; assay type: in vivo, dog; settings: 100 mg/kg perorally
# Method: Femoral blood flow was measured with an electromagnetic flowmeter (Statham).
# [2] = French Pat. 1.397.537; cited from earlier work
structure (smiles),measurement,setting,value
COC(=O)C1=CO[C@@H](C)[C@@H]2CN3CCc4c([nH]c5ccccc45)[C@@H]3C[C@H]12 [Tetrahydroalstonine],time of inducing the sleep after injection of Nembutal,[1],increase
same,concentration of oxygen in the brain capillars,brain blood circulation,increased
same,consumption of glucose by the brain,brain blood circulation,increase
same,consumption of oxygen per minute,brain blood circulation,increased
same,difference in concentration between arterial and venous oxygen,brain blood circulation,increased
same,partial pressure in brain venous oxygen (PO2 VC),brain blood circulation,decrease
same,Cerebral flow,brain blood circulation; 45 minutes (Table I),"89,8 ml/mn"
same,Concentration in capillary oxygen,brain blood circulation; 45 minutes (Table I),"9,3"
same,Concentration in oxygen/mn,brain blood circulation; 45 minutes (Table I),"12,8"
same,Consumption in glucose/mn,brain blood circulation; 45 minutes (Table I),"7,1"
same,G/O = consumption in glucose per mn / concentration in oxygen,brain blood circulation; 45 minutes (Table I),"0,6"
same,QO2,brain blood circulation; 45 minutes (Table I),"14,3"
same,Cerebral flow,brain blood circulation; 67 minutes (Table I),"92,4 ml/mn"
same,Concentration in capillary oxygen,brain blood circulation; 67 minutes (Table I),"8,7"
same,Concentration in oxygen/mn,brain blood circulation; 67 minutes (Table I),"12,4"
same,Consumption in glucose/mn,brain blood circulation; 67 minutes (Table I),"10,7"
same,G/O = consumption in glucose per mn / concentration in oxygen,brain blood circulation; 67 minutes (Table I),"0,9"
same,QO2,brain blood circulation; 67 minutes (Table I),"13,1"
same,Cerebral flow,brain blood circulation; 90 minutes (Table I),"95,8 ml/mn"
same,Concentration in capillary oxygen,brain blood circulation; 90 minutes (Table I),"8,5"
same,Concentration in oxygen/mn,brain blood circulation; 90 minutes (Table I),"12,4"
same,Consumption in glucose/mn,brain blood circulation; 90 minutes (Table I),"11,3"
same,G/O = consumption in glucose per mn / concentration in oxygen,brain blood circulation; 90 minutes (Table I),"1,0"
same,QO2,brain blood circulation; 90 minutes (Table I),"12,6"
same,Cerebral flow,brain blood circulation; 112 minutes (Table I),"90,6 ml/mn"
same,Concentration in capillary oxygen,brain blood circulation; 112 minutes (Table I),"8,4"
same,Concentration in oxygen/mn,brain blood circulation; 112 minutes (Table I),"11,5"
same,Consumption in glucose/mn,brain blood circulation; 112 minutes (Table I),"12,1"
same,G/O = consumption in glucose per mn / concentration in oxygen,brain blood circulation; 112 minutes (Table I),"1,1"
same,QO2,brain blood circulation; 112 minutes (Table I),"12,4"
same,Cerebral flow,brain blood circulation; 135 minutes (Table I),"84,8 ml/mn"
same,Concentration in capillary oxygen,brain blood circulation; 135 minutes (Table I),"8,5"
same,Concentration in oxygen/mn,brain blood circulation; 135 minutes (Table I),"11,4"
same,Consumption in glucose/mn,brain blood circulation; 135 minutes (Table I),"10,9"
same,G/O = consumption in glucose per mn / concentration in oxygen,brain blood circulation; 135 minutes (Table I),"1,2"
same,QO2,brain blood circulation; 135 minutes (Table I),"12,9"
same,CE p. 100 glucose,brain blood circulation; +45 min. (Table II),"8,22 p. 100"
same,DC = Cerebral blood flow,brain blood circulation; +45 min. (Table II),"90,0 ml/mn"
same,G/O,brain blood circulation; +45 min. (Table II),"1,08"
same,O2 /min.,brain blood circulation; +45 min. (Table II),"6,14"
same,O2 cap. = amount of oxygen supplied to the brain tissues,brain blood circulation; +45 min. (Table II),"5,05"
same,PO2 vc = partial pressure of venous oxygen in the brain,brain blood circulation; +45 min. (Table II),"28,50"
same,art. QO2,brain blood circulation; +45 min. (Table II),"14,16"
same,art. pH,brain blood circulation; +45 min. (Table II),"7,39"
same,arterial Q gluc.,brain blood circulation; +45 min. (Table II),900 mg
same,consumption in Gluc./min.,brain blood circulation; +45 min. (Table II),"6,66"
same,ΔH^+/ΔQO2,brain blood circulation; +45 min. (Table II),"-4,44"
same,ΔPCO2/ΔQO2,brain blood circulation; +45 min. (Table II),"109,97"
same,ΔQO2,brain blood circulation; +45 min. (Table II),"+6,82"
same,CE p. 100 glucose,brain blood circulation; +67 min. (Table II),"12,73 p. 100"
same,DC = Cerebral blood flow,brain blood circulation; +67 min. (Table II),"99,0 ml/mn"
same,G/O,brain blood circulation; +67 min. (Table II),"1,38"
same,O2 /min.,brain blood circulation; +67 min. (Table II),"8,40"
same,O2 cap. = amount of oxygen supplied to the brain tissues,brain blood circulation; +67 min. (Table II),"5,95"
same,PO2 vc = partial pressure of venous oxygen in the brain,brain blood circulation; +67 min. (Table II),"24,25"
same,art. QO2,brain blood circulation; +67 min. (Table II),"14,50"
same,art. pH,brain blood circulation; +67 min. (Table II),"7,425"
same,arterial Q gluc.,brain blood circulation; +67 min. (Table II),919 mg
same,consumption in Gluc./min.,brain blood circulation; +67 min. (Table II),"11,58"
same,ΔH^+/ΔQO2,brain blood circulation; +67 min. (Table II),"-6,75"
same,ΔPCO2/ΔQO2,brain blood circulation; +67 min. (Table II),"114,84"
same,ΔQO2,brain blood circulation; +67 min. (Table II),"+8,49"
same,CE p. 100 glucose,brain blood circulation; +90 min. (Table II),"11,70 p. 100"
same,DC = Cerebral blood flow,brain blood circulation; +90 min. (Table II),"112,5 ml/mn"
same,G/O,brain blood circulation; +90 min. (Table II),"1,20"
same,O2 /min.,brain blood circulation; +90 min. (Table II),"10,38"
same,O2 cap. = amount of oxygen supplied to the brain tissues,brain blood circulation; +90 min. (Table II),"6,07"
same,PO2 vc = partial pressure of venous oxygen in the brain,brain blood circulation; +90 min. (Table II),"21,75"
same,art. QO2,brain blood circulation; +90 min. (Table II),"14,25"
same,art. pH,brain blood circulation; +90 min. (Table II),"7,455"
same,arterial Q gluc.,brain blood circulation; +90 min. (Table II),949 mg
same,consumption in Gluc./min.,brain blood circulation; +90 min. (Table II),"12,49"
same,ΔH^+/ΔQO2,brain blood circulation; +90 min. (Table II),"-7,96"
same,ΔPCO2/ΔQO2,brain blood circulation; +90 min. (Table II),"111,05"
same,ΔQO2,brain blood circulation; +90 min. (Table II),"+9,23"
same,CE p. 100 glucose,brain blood circulation; +112 min. (Table II),"12,24 p. 100"
same,DC = Cerebral blood flow,brain blood circulation; +112 min. (Table II),"112,5 ml/mn"
same,G/O,brain blood circulation; +112 min. (Table II),"1,37"
same,O2 /min.,brain blood circulation; +112 min. (Table II),"9,74"
same,O2 cap. = amount of oxygen supplied to the brain tissues,brain blood circulation; +112 min. (Table II),"5,88"
same,PO2 vc = partial pressure of venous oxygen in the brain,brain blood circulation; +112 min. (Table II),"23,0"
same,art. QO2,brain blood circulation; +112 min. (Table II),"13,95"
same,art. pH,brain blood circulation; +112 min. (Table II),"7,44"
same,arterial Q gluc.,brain blood circulation; +112 min. (Table II),972 mg
same,consumption in Gluc./min.,brain blood circulation; +112 min. (Table II),"13,39"
same,ΔH^+/ΔQO2,brain blood circulation; +112 min. (Table II),"-7,39"
same,ΔPCO2/ΔQO2,brain blood circulation; +112 min. (Table II),"103,93"
same,ΔQO2,brain blood circulation; +112 min. (Table II),"+8,66"
same,CE p. 100 glucose,brain blood circulation; +135 min. (Table II),"12,84 p. 100"
same,DC = Cerebral blood flow,brain blood circulation; +135 min. (Table II),"92,0 ml/mn"
same,G/O,brain blood circulation; +135 min. (Table II),"1,28"
same,O2 /min.,brain blood circulation; +135 min. (Table II),"9,22"
same,O2 cap. = amount of oxygen supplied to the brain tissues,brain blood circulation; +135 min. (Table II),"6,33"
same,PO2 vc = partial pressure of venous oxygen in the brain,brain blood circulation; +135 min. (Table II),"19,75"
same,art. QO2,brain blood circulation; +135 min. (Table II),"14,18"
same,art. pH,brain blood circulation; +135 min. (Table II),"7,48"
same,arterial Q gluc.,brain blood circulation; +135 min. (Table II),997 mg
same,consumption in Gluc./min.,brain blood circulation; +135 min. (Table II),"11,78"
same,ΔH^+/ΔQO2,brain blood circulation; +135 min. (Table II),"-8,75"
same,ΔPCO2/ΔQO2,brain blood circulation; +135 min. (Table II),"129,74"
same,ΔQO2,brain blood circulation; +135 min. (Table II),"+10,02"
same,blood flow,brain blood circulation; conclusion,noticeable and extended over a large period of time increase
same,brain metabolism,brain blood circulation; conclusion,significant improvement
same,vasodilatory effect on the femoral blood flow,femoral blood flow,clear
same,Femoral vein flow,femoral blood flow; 45 minutes (Table I),"38,0"
same,Femoral vein flow,femoral blood flow; 67 minutes (Table I),"38,7"
same,Femoral vein flow,femoral blood flow; 90 minutes (Table I),"37,1"
same,Femoral vein flow,femoral blood flow; 112 minutes (Table I),"34,5"
same,Femoral vein flow,femoral blood flow; 135 minutes (Table I),"27,7"
same,adrenolytic activity,[2],adrenolytic agent

# From US3969521A, “Pharmaceutical compositions containing tetrahydroalstonine and method for treating circulation disorders” (Science Union et Cie, Societe Francaise de Recherche Medical, priority 1974, dated 1976)
